Assay results: patent publication US4202941A, “Glycerol oxidase and process for the production thereof and method for the quantitative determination of glycerol by glycerol oxidase” (Kyowa Hakko Kogyo, Co. Ltd., priority 1977, dated 1980)
Read-outs that look alike come from different tables or passages of the source.

Tests used:
[1] = tested on: Enzyme of the genus Aspergillus (glycerol oxidase); test: Inhibition of enzyme activity by 1 mM inhibitors (4-AA method); type: biochemical, Aspergillus japonicus KY-45; design: key: % of activity without inhibitor (no inhibitor = 100)
Procedure: (§1) The enzyme activity is expressed by "unit." A "unit" of the enzyme activity is defined as that amount of enzyme which will decompose 1μ mole of glycerol at 37° C. in 1 minute in the presence of oxygen. The determination of the enzyme activity is carried out as follows: glycerol is reacted with glycerol oxidase with stirring to form hydrogen peroxide, and 4-aminoantipyrine and phenol are reacted with the resulting hydrogen peroxide in the presence of peroxidase to derive quinoneimine pigment. The optical density at 500 nm of the resulting quinoneimine pigment is measured to determine the amount of generated hydrogen peroxide, whereby the enzyme activity is determined (which will be hereinafter referred to as "4-AA method").
(§2) Enzymes activities obtained by adding 1 mM of various inhibitors are shown in Table 1, the activity of the enzyme with no addition of the inhibitor being defined as 100. The activities are measured according to 4-AA method deriving a pigment of 4-aminoantipyrine system from the generated H2 O2.
(§3) Enzymological and physico-chemical properties of glycerol oxidase thus obtained are described below (as glycerol oxidase, the respective purified preparates obtained in Examples 1 and 2, are used).
(§4) Determination of the enzyme activity is carried out by reacting hydrogen peroxide generated by the enzyme with 4-aminoantipyrine and phenol in the presence of peroxidase to obtain quinoneimine pigment, and quantitatively determining the resulting quinoneimine pigment.
(§5) The reagents (1)-(6) are mixed in a test tube, and then shaken at 37° C. for 5 minutes. Then, enzyme solution is added thereto, and thus obtained mixture is made up to 3 ml with ammonium buffer solution. Reaction is carried out at 37° C. for 10 minutes with shaking. On the other hand, similar procedure is repeated using water in place of the test solution as a reference. The optical density of the reaction solution at 500 nm is measured, and a difference from the control is determined as Δ OD (optical density).
(§6) On the other hand, the absorption coefficient of 0.5 mM of quinoneimine pigment is reported as 5.33 [Clin. Chem. 20, 470 (1974)], and thus, if the optical density (Δ OD) at 500 nm of 3 ml of the reaction solution obtained according to the foregoing operational procedure IV-(c) is represented by a, the desired enzyme activity (A) per milliliter of the enzyme solution is calculated from the following formula: [formula]

[2] = tested on: Enzyme of the genus Neurospora (glycerol oxidase); test: as above; type: biochemical, Neurospora crassa KY-462; design: key: % of activity without inhibitor (no inhibitor = 100)
Procedure: as §1, §2, §3, §4, §5, §6

[3] = tested on: Enzyme of the genus Neurospora (glycerol oxidase); test: Substrate specificity, relative activity by 4-AA method; type: biochemical, Neurospora crassa KY-462; conditions: substrate equimolar to glycerol
Procedure: as §1, §3
(§7) The relative activity is measured using other substrates in equimolar amounts to that of glycerol in the procedure for measuring the activity according to 4-AA method.
(§8) The relative activities on other substrates are given in Table 3, the activity on glycerol being defined as 100.
as §5

[4] = tested on: Enzyme of the genus Aspergillus (glycerol oxidase); test: as above; type: biochemical, Aspergillus japonicus KY-45; conditions: substrate equimolar to glycerol
Procedure: as §1, §3, §7, §8, §5

[5] = 1 mM inhibitor, Enzyme of the genus Aspergillus, 4-AA method
[6] = 1 mM inhibitor, Enzyme of the genus Neurospora, 4-AA method

Row | Compound | Enzyme activity on adding inhibitor (activity with no inhibitor defined as 100) [1, 5] | Relative activity on substrate (activity on glycerol defined as 100) [3] | Relative activity on substrate (activity on glycerol defined as 100) [4] | other results
1 | O=S(=O)([O-])[O-].[Cu+2] [CuSO4] | 10 |  |  | Enzyme activity on adding inhibitor (activity with no inhibitor defined as 100) [2, 6]: 20
2 | CC(O)CO (stereo not shown) [1,2-propanediol] |  | 0 | 10.5 | 
3 | [N-]=[N+]=[N-].[Na+] [NaN3] | 20 |  |  | 
4 | CCN1C(=O)C=CC1=O [N-ethylmaleimide] | 100 |  |  | 
5 | c1ccc(-c2ccccn2)nc1 [α,α'-dipyridyl] | 85 |  |  | 
6 | O=S(=O)([O-])[O-].[Fe+2] [FeSO4] |  |  |  | Enzyme activity on adding inhibitor (activity with no inhibitor defined as 100) [2, 6]: 0
7 | O[C@H](CS)[C@H](O)CS (racemic) [dithiothreitol] | 100 |  |  | 
8 | OCCCCO [1,4-butanediol] |  | 0 | 0.3 | 
9 | O=C(O)CI [iodoacetate] |  |  |  | Enzyme activity on adding inhibitor (activity with no inhibitor defined as 100) [2]: 100
10 | OCCCO [1,3-propanediol] |  | 0 | 3.3 | 
11 | [Cl][Hg][Cl] [HgCl2] | 20 |  |  | Enzyme activity on adding inhibitor (activity with no inhibitor defined as 100) [2, 6]: 23
12 | Cc1ccc2ccc3ccc(C)nc3c2n1 [neocuproine] | 100 |  |  | 
13 | CC(=O)[O-].CC(=O)[O-].[Pb+2] [Pb(CH3 COO)2] | 15 |  |  | 
14 | Cl.NO [NH2 OH--HCl] | 0 |  |  | Enzyme activity on adding inhibitor (activity with no inhibitor defined as 100) [2, 6]: 0
15 | CCCO [n-propyl alcohol] |  | 0 | 0 | 
16 | CC(C)O [isopropyl alcohol] |  | 0 | 0 | 
17 | CCO [ethanol] |  | 0 | 0 | 
18 | O=S(=O)([O-])[O-].[Zn+2] [ZnSO4] |  |  |  | Enzyme activity on adding inhibitor (activity with no inhibitor defined as 100) [2, 6]: 23
19 | O=C(O)CN(CCN(CC(=O)O)CC(=O)O)CC(=O)O [EDTA] |  |  |  | Enzyme activity on adding inhibitor (activity with no inhibitor defined as 100) [1]: 105; Enzyme activity on adding inhibitor (activity with no inhibitor defined as 100) [2, 6]: 80
20 | O=[N+]([O-])[O-].[Ag+] [AgNO3] | 30 |  |  | 
21 | OCC(O)CO [glycerol] |  | 100 | 100 | 
22 | CC(O)C(C)O (stereo not shown) [2,3-butanediol] |  | 0 | 0.3 | 
23 | c1cnc2c(c1)ccc1cccnc12 [0-phenanthroline] | 90 |  |  | 
24 | CC(O)CCO (stereo not shown) [1,3-butanediol] |  | 0 | 2.0 | 
25 | O=C(O)c1cc[c]([Hg][Cl])cc1 [PCMB, p-chloromercuribenzoate] | 50 |  |  | Enzyme activity on adding inhibitor (activity with no inhibitor defined as 100) [2, 6]: 108
26 | O=P(O)(O)OCC(O)CO (stereo not shown) [Glycerol-3-phosphoric acid] |  | 21 | 0.4 | 
27 | N[C@@H](CS)C(=O)O [cysteine] |  |  |  | Enzyme activity on adding inhibitor (activity with no inhibitor defined as 100) [2, 6]: 60
28 | Oc1cccc2cccnc12 [8-hydroxyquinoline] |  |  |  | Enzyme activity on adding inhibitor (activity with no inhibitor defined as 100) [1]: 90
